Assay results: PMC8268887, “Peptide/β-Peptoid Hybrids with Ultrashort PEG-Like Moieties: Effects on Hydrophobicity, Antibacterial Activity and Hemolytic Properties” (International Journal of Molecular Sciences, 2021)
Values after ≈ are worked out from the molar mass of the structure shown.

Assays:
[1] = Hydrophobicity by retention in analytical RP-HPLC (% MeCN at peak elution); assay type: physicochemical; settings: for % MeCN at Elution, Aeris Peptide: Phenomenex Aeris Peptide XB-C18 column; for % MeCN at Elution, Aeris Peptide / % MeCN at Elution, Luna Omega / % MeCN at Elution, Supelco Discovery: gradient 0→60% B during 15 min; for % MeCN at Elution, Luna: Phenomenex Luna C18(2) column, RP-HPLC gradient 0→60% B during 15 min, relative hydrophobicity; for % MeCN at Elution, Luna Omega: Phenomenex Luna Omega Polar C18 column; for % MeCN at Elution, Supelco Discovery: Supelco Discovery BIO Wide pore C18 column
How it was run: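 Retention times measured on four C18 columns (Luna C18(2), Luna Omega Polar C18, Aeris Peptide XB-C18, Discovery BIO Wide pore) with MeCN–H2O/0.1% TFA, linear 0–60% B over 15 min, 0.8 mL/min, UV 220 nm. % MeCN at elution = 0.95(0.6Rt/15 min)+0.05(1−0.6Rt/15 min).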

[2] = test system: HepG2 cell line ATCC HB-8065; test: Antiproliferative activity on HepG2 cell line (MTT assay); assay type: cell-based; settings: inhibition of growth of HepG2 cells, 48 h, MTT; highest concentration tested 1280 µg/mL
Experimental: (§1) Effect of compounds on mammalian cell viability was estimated on the HepG2 cell line ATCC HB-8065. In brief, HepG2 cells were seeded into flat-bottomed 96-well plates at a concentration of 5000 cells per well. Subsequently, the cells were incubated for 24 h in a humidified incubator (5% CO2, 37 °C). Then, the medium was removed, and the cells were incubated for 48 h in a humidified incubator (5% CO2, 37 °C) with peptidomimetics in serial dilutions. Then, an 3-(4,5-dimethylthiazol-2-yl)-2,5-diphenyltetrazolium bromide (MTT) assay was performed as previously described. In brief, after incubation with the test compounds, the culture medium was removed, and then fresh medium with 0.2 mg/mL MTT was added into each well of the plate. The cells were then incubated (3 h, 37 °C, 5% CO2), followed by removal of the medium with MTT and addition of 200 μL dimethyl sulfoxide at once to each sample. Absorbance of MTT was measured using the spectrophotometer TECAN Infinite M1000 at 540 nm. The relative viability was calculated by using the formula: ODtreated cells × 100/ODcontrol cells. The IC50 values are calculated by using the program Graph Pad Prism® 5.0. For all compounds, the test range was 10–1280 μg/mL.

[3] = as above; assay type: cell-based; settings: HepG2 cells; at 1280 µg/mL, value in parenthesis; read-out: HepG2 cell viability at highest concentration tested
Experimental: as §1

A. baumannii NMI 3658/17 = assay type: cell-based, Acinetobacter baumannii; settings: NMI 3658/17, 20 h
How it was run: (§2)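 Minimum inhibitory concentrations were recorded following 20 h of incubation with shaking at 35 °C (±2 °C), using ~5 × 10^5 CFU/mL in Mg^2+/Ca^2+-supplemented (4 mg/L each) Mueller-Hinton broth.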

A. baumannii ATCC 19606 = assay type: cell-based, Acinetobacter baumannii; settings: ATCC 19606, 20 h
How it was run: as §2

E. coli NMI 3898/15 = assay type: cell-based, Escherichia coli; settings: NMI 3898/15, 20 h
How it was run: as §2

E. coli ATCC 25922 = assay type: cell-based, Escherichia coli; settings: ATCC 25922, 20 h
How it was run: as §2

E. coli NMI 3371/16 = assay type: cell-based, Escherichia coli; settings: NMI 3371/16, 20 h
How it was run: as §2

P. aeruginosa PAO1 = assay type: cell-based, Pseudomonas aeruginosa; settings: PAO1, 20 h
How it was run: as §2

[4] = test system: P. aeruginosa NMI 7197/19; assay type: cell-based, Pseudomonas aeruginosa; settings: NMI 7197/19, 20 h
How it was run: as §2

Compound | % MeCN at Elution, Aeris Peptide [1] | % MeCN at Elution, Luna [1] | % MeCN at Elution, Luna Omega [1] | % MeCN at Elution, Supelco Discovery [1] | HepG2 IC50 [2] | viability at 48 h [3] | MIC, A. baumannii NMI 3658/17 (A. baumannii NMI 3658/17) | MIC, AB (A. baumannii ATCC 19606) | MIC, E. coli NMI 3898/15 (E. coli NMI 3898/15) | MIC, EC (E. coli ATCC 25922) | MIC, E. coli NMI 3371/16 (E. coli NMI 3371/16) | MIC, PA (P. aeruginosa PAO1) | MIC, P. aeruginosa NMI 7197/19 [4]
NCCCC[C@H](NC(=O)CCN(Cc1ccc(F)cc1)C(=O)[C@H](CCCCN)NC(=O)CCN(Cc1ccc(F)cc1)C(=O)[C@H](CCCCN)NC(=O)CCN(Cc1ccc(F)cc1)C(=O)[C@H](CCCCN)NC(=O)CCN(Cc1ccc(F)cc1)C(=O)[C@H](CCCCN)NC(=O)CCN(Cc1ccc(F)cc1)C(=O)[C@@H](N)CCCCN)C(=O)N(CCC(N)=O)Cc1ccc(F)cc1 [Compound 1, H-[Lys-βNPhe(4-F)]6-NH2] | 39.4 % MeCN | 41.6 % MeCN | 41.9 % MeCN | 41.7 % MeCN | 464 µg/mL | 0% | 4 µg/mL (≈ 2.15 µM) | 8 to 16 µg/mL | 8 µg/mL (≈ 4.3 µM) | 4 to 8 µg/mL | 8 µg/mL (≈ 4.3 µM) | 32 to 64 µg/mL | >64 µg/mL
NCCCC[C@H](NC(=O)CCN(Cc1ccc(F)cc1)C(=O)[C@H](CCCCN)NC(=O)CCN(Cc1ccc(F)cc1)C(=O)[C@H](CCCCN)NC(=O)COCCOCCN)C(=O)N(CCC(=O)NCCOCCOCC(=O)N[C@@H](CCCCN)C(=O)N(CCC(=O)N[C@@H](CCCCN)C(=O)N(CCC(=O)N[C@@H](CCCCN)C(=O)N(CCC(=O)NCCOCCOCC(N)=O)Cc1ccc(F)cc1)Cc1ccc(F)cc1)Cc1ccc(F)cc1)Cc1ccc(F)cc1 [Compound 12, H-sPEG2-[X]3-sPEG2-[X]3-sPEG2-NH2] | 39.2 % MeCN | 41.3 % MeCN | 42.0 % MeCN | 41.3 % MeCN | 332 µg/mL | 34% | 16 µg/mL (≈ 6.97 µM) | 8 to 16 µg/mL | 16 µg/mL (≈ 6.97 µM) | 8 to 16 µg/mL | 8 µg/mL (≈ 3.48 µM) | 16 to 64 µg/mL | >64 µg/mL
NCCCC[C@H](NC(=O)CCN(Cc1ccc(F)cc1)C(=O)[C@H](CCCCN)NC(=O)CCN(Cc1ccc(F)cc1)C(=O)[C@H](CCCCN)NC(=O)CCOCCOCCOCCOCCNC(=O)CCN(Cc1ccc(F)cc1)C(=O)[C@H](CCCCN)NC(=O)CCN(Cc1ccc(F)cc1)C(=O)[C@H](CCCCN)NC(=O)CCN(Cc1ccc(F)cc1)C(=O)[C@@H](N)CCCCN)C(=O)N(CCC(N)=O)Cc1ccc(F)cc1 [Compound 9, H-[X]3-sPEG4-[X]3-NH2] | 39.8 % MeCN | 41.8 % MeCN | 42.3 % MeCN | 42.0 % MeCN | 693 µg/mL | 9% | 4 to 8 µg/mL | 4 to 8 µg/mL | 16 µg/mL (≈ 7.59 µM) | 4 µg/mL (≈ 1.9 µM) | 4 to 8 µg/mL | 32 µg/mL (≈ 15.2 µM) | >64 µg/mL
NCCCC[C@H](NC(=O)CCN(Cc1ccc(F)cc1)C(=O)[C@H](CCCCN)NC(=O)CCN(Cc1ccc(F)cc1)C(=O)[C@H](CCCCN)NC(=O)COCCOCCOCCN)C(=O)N(CCC(=O)NCCOCCOCCOCC(=O)N[C@@H](CCCCN)C(=O)N(CCC(=O)N[C@@H](CCCCN)C(=O)N(CCC(=O)N[C@@H](CCCCN)C(=O)N(CCC(=O)NCCOCCOCCOCC(N)=O)Cc1ccc(F)cc1)Cc1ccc(F)cc1)Cc1ccc(F)cc1)Cc1ccc(F)cc1 [Compound 13, H-sPEG3-[X]3-sPEG3-[X]3-sPEG3-NH2] | 39.9 % MeCN | 41.9 % MeCN | 42.8 % MeCN | 42.1 % MeCN |  |  | 16 µg/mL (≈ 6.59 µM) | 8 to 16 µg/mL | 16 µg/mL (≈ 6.59 µM) | 8 to 16 µg/mL | 8 µg/mL (≈ 3.29 µM) | >64 µg/mL | >64 µg/mL
NCCCC[C@H](NC(=O)CCN(Cc1ccc(F)cc1)C(=O)[C@H](CCCCN)NC(=O)COCCNC(=O)CCN(Cc1ccc(F)cc1)C(=O)[C@H](CCCCN)NC(=O)CCN(Cc1ccc(F)cc1)C(=O)[C@H](CCCCN)NC(=O)COCCNC(=O)CCN(Cc1ccc(F)cc1)C(=O)[C@H](CCCCN)NC(=O)CCN(Cc1ccc(F)cc1)C(=O)[C@@H](N)CCCCN)C(=O)N(CCC(N)=O)Cc1ccc(F)cc1 [Compound 15, H-[X]2-sPEG1-[X]2-sPEG1-[X]2-NH2] | 39.0 % MeCN | 41.1 % MeCN | 41.4 % MeCN | 41.2 % MeCN | 568 µg/mL | 26% | 4 µg/mL (≈ 1.94 µM) | 8 µg/mL (≈ 3.88 µM) | 8 µg/mL (≈ 3.88 µM) | 4 µg/mL (≈ 1.94 µM) | 4 µg/mL (≈ 1.94 µM) | 32 to 64 µg/mL | >64 µg/mL
NCCCC[C@H](NC(=O)CCN(Cc1ccc(F)cc1)C(=O)[C@H](CCCCN)NC(=O)CCN(Cc1ccc(F)cc1)C(=O)[C@H](CCCCN)NC(=O)COCCN)C(=O)N(CCC(=O)NCCOCC(=O)N[C@@H](CCCCN)C(=O)N(CCC(=O)N[C@@H](CCCCN)C(=O)N(CCC(=O)N[C@@H](CCCCN)C(=O)N(CCC(=O)NCCOCC(N)=O)Cc1ccc(F)cc1)Cc1ccc(F)cc1)Cc1ccc(F)cc1)Cc1ccc(F)cc1 [Compound 11, H-sPEG1-[X]3-sPEG1-[X]3-sPEG1-NH2] | 38.7 % MeCN | 40.8 % MeCN | 41.4 % MeCN | 40.8 % MeCN |  |  | 8 µg/mL (≈ 3.7 µM) | 4 to 8 µg/mL | 16 µg/mL (≈ 7.39 µM) | 8 µg/mL (≈ 3.7 µM) | 8 µg/mL (≈ 3.7 µM) | 32 µg/mL (≈ 14.8 µM) | >64 µg/mL
